One experiment relates to acute GVHD. Kind of experiment: mouse MHC class I/II disparate acute GVHD model. The class given is in vivo. On the procedure:
(§1) Lethally irradiated BALB/c mice were given 10e6 C57BL/6 bone marrow only (BM), or BM with 2e6 CD4+25−/CD8+25− Tcon cells without (BM+T) or with 1e6 Tregs treated with either DMSO (DMSO) or 10 μM AEB071 (AEB071) for 30 minutes. […] Tregs were treated with DMSO or AEB071 as above, and activated overnight with plate bound anti-CD3/28 and IL-2. […] […] Tregs were treated with DMSO or AEB071 and activated as above. […] Tregs were transfected with vimentin siRNA (vim) or control (GFP), and activated for 36 hours. CFSE-labeled Tcon were mixed with T-cell depleted splenocytes and soluble anti-CD3 mAb. Treg:Tcon ratios of 1:1-1:27 were plated and CFSE dilution assessed after 3 days.
FIG. 9A is a graph showing the percent survival of recipients. Tregs were transfected with either control (non-targeting) or vimentin siRNA. Recipient mice were given BM alone, BM+Tcon (BM+T), or BM+Tcon+Tregs; Tregs pre-treated with control or vimentin siRNA. […] Bars show mean±SEM. Survival differences analyzed by log-rank test. *, p<0.05; **, P<0.01; ***, P<0.0001; ****, p<0.00001 (Student's t-tests or one-way ANOVA with Tukey's post-test).
FIG. 9B is a graph showing the clinical GVHD scores (0=no disease, 10=most severe disease) for recipients. Tregs were transfected with either control (non-targeting) or vimentin siRNA. Recipient mice were given BM alone, BM+Tcon (BM+T), or BM+Tcon+Tregs; Tregs pre-treated with control or vimentin siRNA. […] Bars show mean±SEM. Survival differences analyzed by log-rank test. *, p<0.05; **, P<0.01; ***, P<0.0001; ****, p<0.00001 (Student's t-tests or one-way ANOVA with Tukey's post-test).
As Tregs exert much of their protective effect against GVHD early in the course of the disease, proliferation of GVHD-causing conventional T-cells (Tcon) on D4 after transplant was analyzed. […] Multi-photon microscopy on D4 was performed after transplant using TEα-GFP Tcon, CD11c-eYFP antigen presenting cells (APCs) and wild-type Tregs. […]

Experiment [1] concerns Tregs. Description: Treg metabolic activity (OCR, ECAR, BoDipyC1-C12 uptake). The class given is cell-based, mouse. The conditions noted are these: AEB071 vs DMSO, after activation. As for the experimental part:
as §1
FIG. 9C is a graph showing basal and maximal oxygen consumption rate (OCR) and extracellular acidification rate (ECAR) measured after transfection. Tregs were transfected with either control (non-targeting) or vimentin siRNA. […] Bars show mean±SEM. Survival differences analyzed by log-rank test. *, p<0.05; **, P<0.01; ***, P<0.0001; ****, p<0.00001 (Student's t-tests or one-way ANOVA with Tukey's post-test).

The test system of the next experiment is Tcon. Kind of experiment: in vitro Treg suppression, Tcon type not specified. The class given is cell-based, mouse. As for the experimental part: as §1
On day 3 after transfection, CD4/8 Tcon and T-cell depleted splenoctyes were isolated for a suppression assay. CD4/CD8 Tcon were purified from spleen of CD45.1 C57BL/6 mice using negative selection with eBioscience biotinylated Ab (anti-CD19, B220, NK1.1, gamma-delta TCR) and StemCell technologies streptavidin RapidSphere technology. Once isolated, Tcon were labeled with CFSE (2.5 μM) for 5 minutes at room temperature with constant agitation.
Responder Tcon were provided with 0.75 μg/mL soluble anti-CD3 mAb. […]

Experiment [2] has as its system Tregs. Kind of experiment: flow cytometry of marker expression in activated Tregs. The class given is cell-based, mouse. On the procedure:
as §1
Bars show mean±SEM. *, p<0.05; **, P<0.01; ***, P<0.0001; ****, p<0.00001 (Student's t-tests or one-way ANOVA with Tukey's post-test).
Ratios of 0:1, 1:1, 1:3, 1:9 and 1:27 Treg:Teff were made. Four replicates of each ratio were made and plated in a 96-well, round bottom plate. After 3 days in culture, the cells from each well were harvested, washed with PBS and then stained with antibodies for flow cytometry analysis of CFSE dilution (proliferation) of CD4 and CD8 Tcon. The antibodies used were as follows: CD4-BV510, CD8-PE-ef610, CD25-BV605, Nrp1-PerCP-ef710, Lag3-APC, Fixable viability dye-APC-ef780, Foxp3-PE-Cy7, and Vimentin-PE.
In general terms: Flow cytometry measures light scatter and fluorescence of single cells or particles in a stream.

The subject of another experiment is Tcon-APC interactions. Description: multi-photon microscopy on D4 after transplant. The class given is in vivo, mouse. The following applies: AEB071-treated Tregs vs DMSO. On the procedure: As Tregs exert much of their protective effect against GVHD early in the course of the disease, proliferation of GVHD-causing conventional T-cells (Tcon) on D4 after transplant was analyzed. […] Multi-photon microscopy on D4 was performed after transplant using TEα-GFP Tcon, CD11c-eYFP antigen presenting cells (APCs) and wild-type Tregs.

In a further experiment the target is T1, PKC-θ/vimentin (Mus musculus, UniProt Q02111).
T1 construct: endogenous in cells
Kind of experiment: confocal microscopy of PKC-θ and vimentin staining in activated Tregs. The class given is cell-based. On the procedure:
FIG. 8A are photographs of the results of experiments in which Tregs were pre-treated with DMSO (control), AEB071, or vimentin siRNA, then activated. PKC-θ and vimentin staining were analyzed by confocal microscopy.
Since PKC-θ localization and function appear to be linked, experiments were performed to understand whether PKC-θ inhibition modulated PKC-θ localization. Consistent with previous work, PKC-θ accumulated at the distal pole of control Tregs after 5 minutes of anti-CD3/CD28 mAb activation (FIG. 8A, top).

For experiment [3], the system named is phosphorylated proteins in activated Tregs. Kind of experiment: flow cytometry analysis of phosphorylated proteins (phosphoflow) in Tregs. It counts as cell-based, mouse. On the procedure:
In addition, the mTORC2-specific phosphorylation site on Akt, serine 473, was reduced, whereas the […] phosphorylation site, threonine 308, was unaltered. […] As both mTORC1 and mTORC2 are involved in T-cell metabolism, the effect of AEB071 treatment on Treg oxygen consumption rate (OCR) was investigated. […] Increased OCR has been associated with increased Treg function. […]
Since PKC-θ inhibition modulated Treg metabolism and mTORC2 function, experiments were performed to determine whether vimentin siRNA might have a similar effect. […] Since mTORC2 signaling was reduced after PKC-θ inhibition, it was hypothesized that mTORC2 activity also could be reduced after treatment with vimentin siRNA.

In the next experiment the test system is splenic Tregs. Kind of experiment: flow cytometry of Tregs from acute GVHD recipients. The class given is in vivo, mouse. The conditions noted are these: AEB071 vs DMSO treated Tregs isolated from acute GVHD mice.
Experiment [4] concerns in vitro-expanded human Tregs. Description: phosphoproteomic screen with human Treg cells. The class given is cell-based. As for the experimental part: Utilizing mass spectroscopy, a total of 12,452 phosphorylation sites were quantified from human Tregs. In order to determine significant differences between DMSO-treated and AEB071-treated Tregs, two experiments were performed concurrently: • Forward experiment: This experiment utilized heavy isotope-labeled Tregs treated with AEB071 and medium isotope-labeled Tregs treated with DMSO. • Reverse experiment: medium isotope-labeled Tregs treated with AEB071 and heavy isotope-labeled Tregs treated with DMSO.
After processing the raw spectra with Max Quant software, the positively identified phosphopeptides were analyzed using Persus software. Contaminating peptides and reverse database hits were filtered out and the peptide intensity values and normalized H/M ratios were log 2 transformed. The significances of the individual H/M ratios calculated using the Significance B test with a false discovery rate of 0.05 for the forward and reverse experiment separately.
Relying only on the Sig B test, the overlap between the two data sets was low with only 15% overlap. In order to improve the overlap between the two data sets, the data was filtered based on fold change (<1.5), consistency of ratios, phospho site localization probability (<75%), and the MaxQuant score (<75). By filtering the results, the overlap improved to 60%.

Where [5] appears, read: 10 μM AEB071 30 minutes vs DMSO, activated overnight with anti-CD3/28 and IL-2.
The mark [6] stands for this setting: PKC-θ inhibition (AEB071), activated Tregs.

Entries after “also recorded” stand apart in the source; their conditions may differ.

T1 sequence (Q02111 whole entry): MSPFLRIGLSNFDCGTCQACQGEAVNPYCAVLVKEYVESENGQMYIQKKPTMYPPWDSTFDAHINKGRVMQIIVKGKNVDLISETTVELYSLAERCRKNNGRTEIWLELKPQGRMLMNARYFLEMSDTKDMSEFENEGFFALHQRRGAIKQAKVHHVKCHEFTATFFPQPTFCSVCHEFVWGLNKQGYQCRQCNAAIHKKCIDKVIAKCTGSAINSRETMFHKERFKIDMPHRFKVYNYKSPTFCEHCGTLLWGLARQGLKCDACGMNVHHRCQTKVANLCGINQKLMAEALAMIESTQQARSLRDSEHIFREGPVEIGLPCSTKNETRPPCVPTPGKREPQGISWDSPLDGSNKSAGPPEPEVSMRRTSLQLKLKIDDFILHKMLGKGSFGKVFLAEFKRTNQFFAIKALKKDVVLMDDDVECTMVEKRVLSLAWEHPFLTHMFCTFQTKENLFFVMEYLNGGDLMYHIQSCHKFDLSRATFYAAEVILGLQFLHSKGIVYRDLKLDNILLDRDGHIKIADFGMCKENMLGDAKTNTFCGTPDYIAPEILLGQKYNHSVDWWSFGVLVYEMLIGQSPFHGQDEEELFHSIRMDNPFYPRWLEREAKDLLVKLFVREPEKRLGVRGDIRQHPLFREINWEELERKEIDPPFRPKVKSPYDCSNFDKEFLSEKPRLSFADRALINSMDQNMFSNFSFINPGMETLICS

Turning to `CN1CCN(c2nc(C3=C(c4c[nH]c5ccccc45)C(=O)NC3=O)c3ccccc3n2)CC1` [AEB071], the GVHD severity entry in the experiment on acute GVHD (Tregs treated 30 minutes with 10 μM AEB071 vs DMSO-treated Tregs) is on record as “significantly better”. Moreover, the “recipient survival / GVHD mortality” value in the experiment on acute GVHD (Tregs treated 30 minutes with 10 μM AEB071 vs DMSO-treated Tregs, p=0.0036) is “significantly increased recipient survival; also recorded: significantly better”. The “Tcon proliferation on D4 after transplant” value in the experiment with acute GVHD (mice given AEB071 treated Tregs vs DMSO treated Tregs) is listed as “significant reduction”. In the experiment on Tregs [1] (time 0-19 min), the “baseline Treg oxygen consumption rate (OCR)” value is reported as “significantly increased”. The “maximal Treg OCR” value in the experiment with Tregs [1] (time 53-70 min) is “significantly increased”. Besides, the “Treg function after AEB071-treatment of vimentin siRNA transfected Tregs” value in the experiment with Tcon (AEB071 added to vimentin siRNA transfected Tregs) is “did not further augment”. Further, the “effect of AEB071 treatment under antibody blockade of Nrp1 and Lag3” value in the experiment on Tcon (in vitro trans-well suppression assays) is on record as “reduced the effect”. In addition, in the experiment with Tregs [2] (setting [5]), the “surface expression of Lymphocyte activation gene 3 (Lag3)” value was “significantly increased; also recorded: augmented expression” and the “surface expression of Neuropilin-1 (Nrp1)” value was “significantly increased; also recorded: augmented expression”. In addition, the “GI homing molecule expression” value in the experiment on Tregs [2] (AEB071 treatment) is “did not increase”. In the experiment on Tcon-APC interactions, the “Tcon displacement from APCs” value is on record as “significantly increased” and the Tcon velocity entry was “significantly increased”. Besides, at PKC-θ/vimentin (AEB071-pre-treated Tregs after activation vs control), the “interaction / overlap between vimentin and PKC-θ” value is “reduced the interaction”. For the same molecule, at PKC-θ/vimentin (AEB071-pre-treated Tregs after anti-CD3/CD28 activation vs control), the PKC-θ localization entry is “dispersed throughout the cell”. The “PKC-θ auto-phosphorylation at Ser676” value in experiment [3] (AEB071 treatment, stated by comparison with vimentin siRNA) is on record as “significantly reduced”. In addition, in experiment [3] (setting [6]), the “Akt phosphorylation at serine 473 (mTORC2-specific site)” value is “reduced”, the “Akt phosphorylation at threonine 308 (mTORC1-specific site)” value was “unaltered” and the “phosphorylation of mTORC2 target FoxO3a” value is listed as “reduced phosphorylation”. Besides, in the experiment with splenic Tregs, the “expression of Lag3” value is “augmented expression” and the “expression of Nrp1” value is given as “augmented expression”. Moreover, the “number of proteins with significant alterations in phosphorylation sites” value in experiment [4] (AEB071 vs DMSO treated human Tregs) was determined as 72. In [4] (AEB071 vs DMSO, b140: RLTPR serine 1226, PKC-theta consensus site), the “phosphorylation of adaptor molecule that links PKC-θ to vimentin (RLTPR)” value was “reduced phosphorylation”.

These data come from US10993959B2, “Methods and compositions for increasing the suppressive function of regulatory T-cells (Tregs)” (Regents of the University of Minnesota, priority 2015, dated 2021).
